Measurements: ChEMBL document CHEMBL1201862, “PubChem BioAssay data set” (2004)
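Five compound concentrations were applied to cells in 96-well plates for 48 hours; endpoints were derived by simple linear interpolation of the resulting dose-response curve. GI50: concentration for 50% inhibition of growth.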 Calls of active or inactive are those of the source. Cut-off read from the data, not from the text of the source: active = GI50 up to about 1.1 µM and inactive = higher.

How the values were obtained:
Assay in all cases: DTP human tumour cell line panel, 48 h
[1] = system: 786-0
[2] = system: A498
[3] = system: ACHN
[4] = system: COLO 205
[5] = system: EKVX
[6] = system: K562
[7] = system: MOLT-4
[8] = system: Malme-3M
[9] = system: NCI-H23
[10] = system: OVCAR-4
[11] = system: RXF 393
[12] = system: SK-MEL-5
[13] = system: SK-OV-3
[14] = system: SNB-19
[15] = system: TK-10
[16] = system: UO-31

| SMILES | GI50 [1] | GI50 [2] | GI50 [3] | GI50 [4] | GI50 [5] | GI50 [6] | GI50 [7] | GI50 [8] | GI50 [9] | GI50 [10] | GI50 [11] | GI50 [12] | GI50 [13] | GI50 [14] | GI50 [15] | GI50 [16] |
| --- | --- | --- | --- | --- | --- | --- | --- | --- | --- | --- | --- | --- | --- | --- | --- | --- |
| OCC(O)COc1c(Cl)ccc(Cl)c1Cl (stereo unspecified) | > 100 µM (inactive) | > 100 µM (inactive) | > 100 µM (inactive) | > 100 µM (inactive) | > 100 µM (inactive) | > 100 µM (inactive) | > 100 µM (inactive) | > 100 µM (inactive) | > 100 µM (inactive) | > 100 µM (inactive) | > 100 µM (inactive) | > 100 µM (inactive) | > 100 µM (inactive) | > 100 µM (inactive) | > 100 µM (inactive) | > 100 µM (inactive) |
| C=CCNC(=O)NCCCC(NC(C)=O)C(=O)NCc1ccccc1 (stereo unspecified) | > 100 µM (inactive) | > 100 µM (inactive) | > 100 µM (inactive) | > 100 µM (inactive) | > 100 µM (inactive) | > 100 µM (inactive) | > 100 µM (inactive) | > 100 µM (inactive) | > 100 µM (inactive) | > 100 µM (inactive) | > 100 µM (inactive) | > 100 µM (inactive) | > 100 µM (inactive) | > 100 µM (inactive) | > 100 µM (inactive) | > 100 µM (inactive) |
| CN1C(=O)N(C)C2(O)c3ccccc3C(=O)C12O (stereo unspecified) | > 100 µM (inactive) | > 100 µM (inactive) | > 100 µM (inactive) | > 100 µM (inactive) | > 100 µM (inactive) | > 100 µM (inactive) | > 100 µM (inactive) | > 100 µM (inactive) | > 100 µM (inactive) | > 100 µM (inactive) | > 100 µM (inactive) | > 100 µM (inactive) | > 100 µM (inactive) | > 100 µM (inactive) | > 100 µM (inactive) | > 100 µM (inactive) |
| C[C@@H]1[C@@H]2[C@@H](C=C3C4CCC5Cc6nc7c(nc6C[C@@]5(C)C4C[C@H](O)[C@]32CO)CC2CCC3C4=C[C@H]5O[C@@]6(OC(C)(CO)C[C@@H]6O)[C@H](C)[C@@]5(O)[C@]4(C)[C@@H](O)CC3[C@]2(C)C7)O[C@]12CCC(C)(C)O2 (stereo partly specified) | 0.00262 µM (active) | 0.00883 µM (active) | 0.171 µM (active) | 0.0809 µM (active) | 0.0766 µM (active) | 0.0164 µM (active) | 0.00505 µM (active) | 0.101 µM (active) | 0.0328 µM (active) | 0.959 µM (active) | 0.00082 µM (active) | 0.0324 µM (active) | 0.0167 µM (active) | 0.111 µM (active) | 0.473 µM (active) | 0.0575 µM (active) |
| OCCCNc1ccnc2cc(Cl)ccc12 | > 100 µM (inactive) | > 100 µM (inactive) | > 100 µM (inactive) | > 100 µM (inactive) | > 100 µM (inactive) | > 100 µM (inactive) | > 100 µM (inactive) | > 100 µM (inactive) | > 100 µM (inactive) | > 100 µM (inactive) | > 100 µM (inactive) | > 100 µM (inactive) | > 100 µM (inactive) | > 100 µM (inactive) | 21 µM (inactive) | 25.5 µM (inactive) |
| CC(C)c1cccc(C(C)C)c1/N=C(/N)C#N | > 43.6 µM (inactive) | > 100 µM (inactive) | > 100 µM (inactive) | 40.6 µM (inactive) | > 100 µM (inactive) | 25.4 µM (inactive) | > 45.9 µM (inactive) | > 100 µM (inactive) | > 100 µM (inactive) | > 100 µM (inactive) | 53.8 µM (inactive) | > 93.5 µM (inactive) | > 100 µM (inactive) | > 100 µM (inactive) | > 100 µM (inactive) | > 100 µM (inactive) |
